Data set [1] is described as follows: LD50 in mice (Lichfield and Wilcoxon method). The settings on record: mouse, in vivo, mice, read-out: LD50. From the text:
(§1) For example, the results obtained with 3S-hydroxy-10,11-dihydroquinidine in the form of the hydrochloride salt are shown in Table 1 below.

Data set [2] can be described thus: LD50 in rats (Lichfield and Wilcoxon method). Particulars: rat, in vivo, male, oral.
From the text: as §1

Structures are written as SMILES.

As for `CC[C@@]1(O)CN2CC[C@H]1C[C@@H]2[C@@H](O)c1ccnc2ccc(OC)cc12` [3S-hydroxy-10,11-dihydroquinidine], the LD50 (as a rule, the dose at which mortality reaches 50%) in data set [1] (ip, female, IP) was found to be 180 mg/kg; in data set [1] (ip, male, IP), 280 mg/kg; in data set [1] (iv, female, IV), 105 mg/kg; in data set [1] (iv, male, IV), 120 mg/kg; in data set [1] (po, female, oral), 900 mg/kg; in data set [1] (po, male, oral) it was 975 mg/kg. Moreover, the LD50 in data set [2] is 640 mg/kg.

For the origin of these results see patent US4716171A (Etablissements Nativelle S.A., priority 1981, dated 1987).
